Source: ChEMBL document CHEMBL1201862, “PubChem BioAssay data set” (2004)
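Cultured in 96-well plates, cells were exposed to test compound for 48 hours across five concentrations. GI50 = concentration required for 50% inhibition of growth.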 Active and inactive are the calls of the source. Cut-off read from the data, not from the text of the source: active = GI50 up to about 1.1 µM and inactive = higher.

Experiments:
Assay in all cases: NCI-60 cell line screen, 48 h
A549 = system: A549
ACHN = system: ACHN
HCC 2998 = system: HCC 2998
HL-60 = system: HL-60
HOP-92 = system: HOP-92
K562 = system: K562
MCF7 = system: MCF7
MOLT-4 = system: MOLT-4
NCI/ADR-RES = system: NCI/ADR-RES
OVCAR-3 = system: OVCAR-3
OVCAR-5 = system: OVCAR-5
OVCAR-8 = system: OVCAR-8
PC-3 = system: PC-3
RPMI-8226 = system: RPMI-8226
RXF 393 = system: RXF 393
SK-OV-3 = system: SK-OV-3
SNB-19 = system: SNB-19
SR = system: SR
TK-10 = system: TK-10
UACC-257 = system: UACC-257

Row | Compound | GI50 (A549) | GI50 (ACHN) | GI50 (HCC 2998) | GI50 (HL-60) | GI50 (HOP-92) | GI50 (K562) | GI50 (MCF7) | GI50 (MOLT-4) | GI50 (NCI/ADR-RES) | GI50 (OVCAR-3) | GI50 (OVCAR-5) | GI50 (OVCAR-8) | GI50 (PC-3) | GI50 (RPMI-8226) | GI50 (RXF 393) | GI50 (SK-OV-3) | GI50 (SNB-19) | GI50 (SR) | GI50 (TK-10) | GI50 (UACC-257)
1 | CCOC(=O)C1(C(=O)OCC)C[C@H]2CON=C2[C@@H]1c1ccc(C(F)(F)F)cc1 | 75 µM (inactive) | 19.1 µM (inactive) | 31.9 µM (inactive) | 27.7 µM (inactive) | 50.4 µM (inactive) | 35.2 µM (inactive) | 35.9 µM (inactive) | 25.9 µM (inactive) | 32.6 µM (inactive) | 40.1 µM (inactive) | 72.6 µM (inactive) | 79.4 µM (inactive) | 42.9 µM (inactive) | 26.5 µM (inactive) | 43.6 µM (inactive) | 57.8 µM (inactive) | > 100 µM (inactive) | 35.4 µM (inactive) | 67 µM (inactive) | 30.8 µM (inactive)
2 | COc1cc(/N=N/c2cccc(S(N)(=O)=O)c2)c2ccccc2c1N | 14 µM (inactive) | 15.5 µM (inactive) | 8.04 µM (inactive) | 5.2 µM (inactive) | 17.3 µM (inactive) | 12.2 µM (inactive) | 6.84 µM (inactive) | 5.65 µM (inactive) | 22 µM (inactive) | 4.86 µM (inactive) | 17.5 µM (inactive) | 16.3 µM (inactive) | 11.5 µM (inactive) | 16.3 µM (inactive) | 15.7 µM (inactive) | 15.6 µM (inactive) | 14.6 µM (inactive) | 11.3 µM (inactive) | 16.1 µM (inactive) | 1.54 µM (inactive)
3 | CCN1C=C/C(=C\C=C\c2cc[n+](CC)c3ccccc23)c2ccccc21 | 3.77 µM (inactive) | 11.9 µM (inactive) | 7.24 µM (inactive) | 0.0135 µM (active) | 12.4 µM (inactive) |  | 6.28 µM (inactive) | 3.2 µM (inactive) | 64.4 µM (inactive) | 2.49 µM (inactive) | 4.12 µM (inactive) | 4.28 µM (inactive) | 4.49 µM (inactive) | 3.07 µM (inactive) | 17.3 µM (inactive) | 4.66 µM (inactive) | 4.17 µM (inactive) | 3.33 µM (inactive) | 10.6 µM (inactive) | 3.18 µM (inactive)
4 | O=C(C1OC1c1ccc(O)cc1)C12CC3CC(CC(C3)C1)C2 (configuration not stated) | 95.3 µM (inactive) | 42 µM (inactive) | > 100 µM (inactive) | 10.9 µM (inactive) | 32.3 µM (inactive) | 23.7 µM (inactive) | > 55.3 µM (inactive) | 17.8 µM (inactive) | 52.1 µM (inactive) | 45.1 µM (inactive) | > 100 µM (inactive) | 50 µM (inactive) | 85.5 µM (inactive) | 27 µM (inactive) | > 78.3 µM (inactive) | > 100 µM (inactive) | > 100 µM (inactive) | 30.1 µM (inactive) | 58.3 µM (inactive) | 57 µM (inactive)
5 | O=C1Nc2ccccc2NC1C1OC(c2ccccc2)=CC1=O (configuration not stated) | > 100 µM (inactive) | > 100 µM (inactive) | > 100 µM (inactive) | > 100 µM (inactive) | > 100 µM (inactive) | > 100 µM (inactive) | > 100 µM (inactive) | > 100 µM (inactive) | 82.2 µM (inactive) | > 100 µM (inactive) | > 100 µM (inactive) | > 100 µM (inactive) | > 100 µM (inactive) | > 100 µM (inactive) | > 100 µM (inactive) | > 100 µM (inactive) | > 100 µM (inactive) | > 100 µM (inactive) | > 100 µM (inactive) | 40.8 µM (inactive)
6 | O=c1[nH]c(=O)n(C2CC(O)C(CS)O2)cc1F (configuration not stated) | 23.6 µM (inactive) | 21.4 µM (inactive) | 4.61 µM (inactive) | > 63.8 µM (inactive) | 9.79 µM (inactive) | > 93.3 µM (inactive) | 8.38 µM (inactive) | 62.5 µM (inactive) | 5.4 µM (inactive) | > 92.3 µM (inactive) | > 61.9 µM (inactive) | 14.8 µM (inactive) | 81.3 µM (inactive) | 67 µM (inactive) | > 100 µM (inactive) | > 100 µM (inactive) | 98.4 µM (inactive) | 56.6 µM (inactive) | 83.2 µM (inactive) | > 100 µM (inactive)
7 | COC(=O)c1c2c(cc3c1CC1(Cc4ccc(C(C)=O)cc4C1)C3)CCC2 (configuration not stated) | 33.1 µM (inactive) | 66.8 µM (inactive) | > 10 µM (inactive) | 17.1 µM (inactive) | 93.3 µM (inactive) | 14.9 µM (inactive) | 37.3 µM (inactive) | 21 µM (inactive) | 21.3 µM (inactive) | > 100 µM (inactive) | > 100 µM (inactive) | 68.9 µM (inactive) | 19.5 µM (inactive) | 24.7 µM (inactive) | 20.2 µM (inactive) | 63.2 µM (inactive) |  | 20.7 µM (inactive) | > 100 µM (inactive) | 25.2 µM (inactive)
8 | O=c1[nH]c2cccc([N+](=O)[O-])c2c(=O)n1-c1ccc(Cl)cc1 | 12.4 µM (inactive) | 8.51 µM (inactive) | 14 µM (inactive) | 11.7 µM (inactive) | 18.5 µM (inactive) | 1.48 µM (inactive) | 9.91 µM (inactive) | 19 µM (inactive) | 10.4 µM (inactive) | 10.8 µM (inactive) | 16.3 µM (inactive) | 11.8 µM (inactive) | 16.6 µM (inactive) | 13.6 µM (inactive) | 17.1 µM (inactive) | 14.3 µM (inactive) | 20 µM (inactive) | 15 µM (inactive) | 14.9 µM (inactive) | 11.5 µM (inactive)
9 | CC1(c2cccs2)CC(c2cccs2)=C(C#N)C(=C(C#N)C#N)N1 (configuration not stated) | 22 µM (inactive) | 17.5 µM (inactive) | 15.9 µM (inactive) | 10.1 µM (inactive) | 14.8 µM (inactive) | 23 µM (inactive) | 18.5 µM (inactive) | 44.7 µM (inactive) | 21.3 µM (inactive) | 16.3 µM (inactive) | 21.5 µM (inactive) | 17.3 µM (inactive) | 15.4 µM (inactive) | 17.5 µM (inactive) | 18.3 µM (inactive) | 21.6 µM (inactive) | 18.7 µM (inactive) | 18 µM (inactive) | 21 µM (inactive) | 17.6 µM (inactive)
10 | Cc1coc2c1[C@@H](O)[C@@]1(C)[C@H](CCC[C@@H]1C)C2 |  | 33.8 µM (inactive) | 42.4 µM (inactive) | 23.7 µM (inactive) | 51.2 µM (inactive) | 26.9 µM (inactive) | > 100 µM (inactive) | 24.8 µM (inactive) | 24.8 µM (inactive) | 23.9 µM (inactive) | 67 µM (inactive) | 22.4 µM (inactive) | 36.5 µM (inactive) | 31.8 µM (inactive) | 18.2 µM (inactive) | 48.4 µM (inactive) | 72.9 µM (inactive) | 21.6 µM (inactive) | > 100 µM (inactive) | 33 µM (inactive)
11 | Cc1ccc2[nH]/c(=N/S(=O)(=O)c3cc(C)c(Cl)cc3S)[nH]c2c1 | 44.2 µM (inactive) | 41.2 µM (inactive) | > 100 µM (inactive) | 28.8 µM (inactive) | > 100 µM (inactive) | 50.2 µM (inactive) | 64.1 µM (inactive) | 25.6 µM (inactive) | > 100 µM (inactive) | 91.2 µM (inactive) | > 100 µM (inactive) | 93.1 µM (inactive) | 50 µM (inactive) | 40 µM (inactive) | > 100 µM (inactive) | > 100 µM (inactive) | 36.3 µM (inactive) | 31.6 µM (inactive) | > 100 µM (inactive) | > 100 µM (inactive)
12 | CC1NOC(NS(=O)(=O)c2ccc(/N=N/c3c(O)c(C(=O)O)cc4ccccc34)cc2)C1C (configuration not stated) | > 100 µM (inactive) | > 100 µM (inactive) | > 100 µM (inactive) | > 100 µM (inactive) | > 100 µM (inactive) | > 100 µM (inactive) | > 100 µM (inactive) | > 100 µM (inactive) | > 100 µM (inactive) | > 100 µM (inactive) | > 100 µM (inactive) | > 100 µM (inactive) | > 100 µM (inactive) | > 100 µM (inactive) | > 100 µM (inactive) | > 100 µM (inactive) | 59.2 µM (inactive) | > 100 µM (inactive) | > 100 µM (inactive) | > 100 µM (inactive)
13 | O=C1N[C@@H]2c3c(Br)sc(Br)c3C(=O)[C@@H]2N1 | 12.6 µM (inactive) | 4.02 µM (inactive) | 1.81 µM (inactive) | 2.14 µM (inactive) | 5.56 µM (inactive) | 2.1 µM (inactive) | 2.62 µM (inactive) | 2.76 µM (inactive) | 15.4 µM (inactive) | 2.59 µM (inactive) | 17.2 µM (inactive) | 2.9 µM (inactive) | 3.05 µM (inactive) | 3.05 µM (inactive) | 4.94 µM (inactive) | 14.1 µM (inactive) | 11.3 µM (inactive) | 1.74 µM (inactive) | 2.24 µM (inactive) | 3.3 µM (inactive)
14 | c1ccc(-c2cc(-c3cc(-c4ccccc4)no3)on2)cc1 | 53.2 µM (inactive) | 29.3 µM (inactive) | > 100 µM (inactive) | > 100 µM (inactive) | 24.5 µM (inactive) | 17.9 µM (inactive) | > 100 µM (inactive) | 25.2 µM (inactive) | 29.7 µM (inactive) | 39.5 µM (inactive) | > 100 µM (inactive) | 13.8 µM (inactive) | > 100 µM (inactive) | > 100 µM (inactive) | 67.1 µM (inactive) | 28.6 µM (inactive) | 49.3 µM (inactive) | 11.5 µM (inactive) | > 100 µM (inactive) | > 100 µM (inactive)
